Measurements reported in US8895610B1, “Platinum (IV) compounds targeting zinc finger domains” (priority 2007, dated 2014).
Several values for one entry are separate records, joined by “and”; a condition that tells them apart may be missing. Equal values may be shown once.

How the values were obtained:
[1] = tested on: FIV Petaluma; assay: p25 antigen evaluation of antiviral activity in MBM cells; type: cell-based, feline; details: for p25 Viral Antigen (OD), average / p25 Viral Antigen (OD), individual wells: 7 days post infection, K+ = 1.195, K− = 0.08, listed as 4
Protocol: Antiviral activity in MBM was determined by inoculating 200 Tissue Culture Infectious Doses 50% FIV Petaluma (Talbott, 1989) in 100 μL RPMI 1640 medium into quadruplicate wells of 96-well microplates containing 2×10^5 cells in 100 μL medium. The cultures were monitored by measuring FIV p25 capsid protein (Lombardi, 1994) release in the supernatants after 7 days of incubation at 37° C. in 5% CO2 (Table 12). Half the media (without drug) was replaced on days 2 and 6 after infection and initial drug exposure. […] Drugs are identified as: CPA-7 (#1); NAD (#2); cisplatin (#3) and FX101 (#4). […]. […] A minimum of 50% inhibition in vitro is required to offset viral infectivity and replication in vivo.

[2] = tested on: MMP-2; assay: Feline blood serum immunofluorescent bead analysis: MMP-2; type: in vivo, cat; details: for MMP-2, relative blood serum measure: cats BR, CF
Protocol: (§1) Test sera samples from select felines were analyzed using the Rules-Based Medicine (Austin, Tex.) human multi-analyte for 90 measures from a single sample of less than 0.5 mL. The assay uses immunofluorescent beads to simultaneously measure antibody recognition to individually identifiable colored beads, each conjugated with a specific antibody, within a single well plate. Blood samples were drawn preceding (pretreatment) and following (post treatment) one-month FX101 treatment (from felines in Example 6), and are compared with two uninfected control felines. Human cross-reactive antibodies are commonly used for felines, and are relative rather than quantitative measures. Reductions in TNF-alpha and MMP-2 are evident in treated cats; TIMP-1 (Tissue Inhibitor of Metalloproteinases) is not associated with the downregulation of MMP-2. Both MMP-2 and MMP-9, as well as MCP-1, are considered important contributors to the penetration of virally-infected cells across the BBB (Webster, 2006). Additional comments follow the table.

[3] = tested on: p24 Gag protein; assay: Western blot of p24 Gag protein, pNL4-3-transfected HeLa cells and viral progeny; type: cell-based, HIV-1; details: increasing concentration
Text: In vitro, this process occurs in the presence of nucleic acids and a cofactor (Campbell, 1999; Campbell, 2001). Immature particles fail to consolidate an outer membrane, emphasizing the critical role of Gag proteins in the assembly process (Didierlaurent, 2008). As virions bud from the host membrane, viral protease cleaves p55 Gag into its final mature components: matrix (p17), capsid (p24), nucleocapsid (p7) and p6, each designated by its apparent molecular weight. […] Effects may extend across the Gag polyprotein and its components, further compounding activities.

[4] = tested on: M2 strain of FIV; assay: Second FIV cat study, plasma viremia (five treated, three control cats); type: in vivo, domestic cat; details: after 6 intravenous doses of 3 mg/kg over four weeks, controls showed active viremia
Text: Eight specific-pathogen-free domestic female cats infected >2 years with the M2 strain of FIV were used in another study. Cats were housed individually in a climatized animal facility in accordance with standards, had ad libitum access to fresh water and food, and were sedated with Tiletamine/Zolazepam intramuscularly prior to any procedure. The animals were divided into two groups, with five receiving FX101 in 10% DMSO/saline (treated) and three receiving only 10% DMSO/saline (control). Prior to initiation of the treatment and at scheduled times, samples were collected for hematological and virological analyses. The cats received 6 intravenous doses of 3 mg/kg FX101 over four weeks. Cats were matched by birthdates and infection dates with similar viral blood plasma viremia levels at the onset of the study. […] Current antretrovirals are required on a daily basis; the efficacy of six doses of treatment over four weeks supports a distinct mechanism from the nucleotide/non-nucleotide reverse transcriptase, protease and infectivity inhibitors. Efficacy extends across diverse strains of FIV, in agreement with alterations by platinum(IV) compounds to the zinc-binding nucleocapsid domain being therapeutically targeted. It is anticipated that cotherapies targeting multiple mechanisms may eventually provide viral clearance for an infected host.

[5] = target: F2 zinc finger peptide (Human immunodeficiency virus type 1 group M subtype B, UniProt P12493)
Protocol: Solutions of F2 zinc finger peptide in phosphate-buffered saline without calcium or magnesium (see Example 1) alone or mixed with zinc and/or platinum compounds were analyzed by MALDI-TOF (matrix-assisted laser desorption/time-of-flight) MS (mass spectrometry). Briefly, the samples comprised 1:1 ratios of F2 peptide with metals in phosphate buffered saline without calcium or magnesium at 2×10 moles/liter concentrations. Additionally, samples containing both Zn(II) and Pt(IV) metals with F2 peptide in a 1:1:1 ratio were analyzed, as were various Pt(IV) and Pt(II) compounds mixed with F2 peptide solutions. Samples were considered to be at equilibrium after 12 hours stored at 4° C. Volumes of 0.5-1.0 microliters for each sample were individually spotted with or without dilution at 1:10, 1:100 or 1:1000 (˜165-193 pmole/microliter) in DHB matrix (Laser Biolabs, France). […]
The main group of peaks include at least two overlapping peaks characteristic of cysteines (see note above) with neutral mass within 2451.82-2457.82 Da, singly charged ions at m/z 2452.82-2458.82 Da. […] While MALDI-TOF MS is not quantitative, relative peak heights are proportional to relative amounts of species.

[6] = tested on: TIMP-1; assay: Feline blood serum immunofluorescent bead analysis: TIMP-1; type: in vivo, cat; details: cats BR, CF
Protocol: as §1

[7] = tested on: Petaluma strain of FIV (proviral DNA in PBMC); assay: Proviral load in peripheral blood mononuclear cells by TM-PCR; type: in vivo, domestic cat; details: for Proviral Load in PBMC: cats BR, CF
Text: Currently available antiretrovirals require daily dosing, often in combination therapy. Two 12^+-year old specific-pathogen-free domestic female cats infected >5 years with the Petaluma strain of FIV were used in this study. The animals were housed individually in a climatized animal facility in accordance with standards, had ad libitum access to fresh water and food, and were sedated with Tiletamine/Zolazepam intramuscularly prior to any procedure. The cats weighed from 3-5 kg each. Three weeks before initiation of the treatment and at scheduled times, samples were collected for hematological and virological analyses. The cats received 9 intravenous doses of 3 mg/kg FX101 over 4.5 weeks (2× weekly).
Genomic DNA was extracted from the PBMC using the QIAamp DNA Blood Mini kit (QIAGEN). Proviral DNA was quantified from 0.4 ug genomic DNA by TM-PCR under the same conditions used for cDNA amplification except that the reaction mixture volume was 25 ul (n=3). The sensitivity of the assay was 100 copies/ug genomic DNA (Pistello, 2005). Proviral load varied over the course of treatment, but measured much lower than baseline pretreatment measures both 6 and 9 months later (27 and 38 weeks, respectively). This measure reflects viral integration into the host PBMCs, primed for production of viral particles with commencement of transcription. […] This is indicative of viral clearance and immune recovery, including apoptotic elimination of virally-infected cells. Viral reservoirs, such as those of macrophages and monocytes, have prevented eradication of lentiviruses (Nicastri, 2008).
0.1664 g FX101 was dissolved into 30 mL 15% DMSO/PBS and stirred overnight. This solution was sterile-filtered using a 20-mL syringe fitted with a […] Sarstedt filter. Each dose was administered under anesthesia, a 1.5 mL venous injection using a 2.5 mL syringe fitted with a 22G 1¼-in. needle (latex free). Feline BR weighed 3.2 kg at the start of the experiment and CF weighed 2.8 kg. Each received 8.3 mg drug with each dose, so dosages were 2.6 mg/kg for BR and 3.0 mg/kg for CF.

[8] = post treatment (one-month FX101 treatment)

[NH2][Pt]([NH2])([Cl])([Cl])([Cl])[N+](=O)[O-] [FX101, nitrotrichlorodiamminoPt(IV)]
inhibition (elimination of all measures of virus) by day 7 ([1]; 7 days, concentrations used 5 and 20 μM, listed as #4): 100% | p25 Viral Antigen (OD), average ([1]; conc 5 μM): 0 OD | p25 Viral Antigen (OD), individual wells ([1]; conc 5 μM): 0 OD | p25 Viral Antigen (OD), average ([1]; conc 20 μM): 0 OD | p25 Viral Antigen (OD), individual wells ([1]; conc 20 μM): 0 OD | MMP-2, relative blood serum measure [2, 8]: 2070 ng/mL and 2120 ng/mL | MMP-2 in serum of treated cats (in words) ([2]; post vs pre one-month treatment): Reductions | MMP-2, relative blood serum measure ([2]; pretreatment): 3000 ng/mL and 3150 ng/mL | mature p24 content in host cells and viral progeny (Western blot) [3]: absence of mature p24 | plasma viremia levels [4]: below the detection limit of the assay | competition with zinc for the F2 zinc finger binding domain ([5]; 1:1:1 F2:FX:Zn): thermodynamic competition of FX over zinc | coordination with F2 peptide (set of peaks at m/z 2452.82-2458.82 Da) ([5]; 1:1 with F2 peptide in PBS, 12 hours at 4° C.): unique to the F2 peptide+FX spectral complex | TIMP-1, relative blood serum measure [6, 8]: 9.0 ng/mL and 7.3 ng/mL | TIMP-1, relative blood serum measure ([6]; pretreatment): 6.5 ng/mL and 9.8 ng/mL | PBMC proviral load immediately following final dosing (in words) ([7]; 14 days after the final dosing, both animals): short increase | Proviral Load in PBMC ([7]; Aug. 23, 2007 start of treatment period, blood collected prior to dosing): 4472 proviral DNA copies/ug genomic DNA and 6867 proviral DNA copies/ug genomic DNA | Proviral Load in PBMC ([7]; Aug. 30, 2007 treatment period): 5803 proviral DNA copies/ug genomic DNA and 6476 proviral DNA copies/ug genomic DNA | Proviral Load in PBMC ([7]; Jun. 12, 2008 (+38 wk) post treatment): 1747 proviral DNA copies/ug genomic DNA and 1350 proviral DNA copies/ug genomic DNA | Proviral Load in PBMC ([7]; Mar. 27, 2008 (+27 wk) post treatment): 1250 proviral DNA copies/ug genomic DNA and 1000 proviral DNA copies/ug genomic DNA | Proviral Load in PBMC ([7]; Oct. 4, 2007 (+2 wk) post treatment): 14500 proviral DNA copies/ug genomic DNA and 14724 proviral DNA copies/ug genomic DNA | Proviral Load in PBMC ([7]; Oct. 20, 2007 (+4 wk) post treatment): 4211 proviral DNA copies/ug genomic DNA and 2790 proviral DNA copies/ug genomic DNA | Proviral Load in PBMC ([7]; Sep. 20, 2007 treatment period): 4152 proviral DNA copies/ug genomic DNA and 4660 proviral DNA copies/ug genomic DNA | proviral loads over subsequent months (in words) ([7]; months after treatment, vs pretreatment baseline): declined over subsequent months, even below pretreatment baseline measures
